In US20240268372A1, “Methods and Compositions for Extending Organ and Tissue Preservation” (The General Hospital Corporation, priority 2021, published 2024):

Tested on: rat livers
Test: Partial freezing of rat livers with 12% glycerol with or without ice modulators, SNMP recovery
Description: Experimental design: FIG. 39 outlines the rat liver partial freezing protocol in eight consecutive steps: (1) liver procurement, (2) preconditioning during SNMP, (3) CPA preloading during hypothermic machine perfusion (HMP), (4) loading of final storage solution and ice modulators during HMP, (5) partial freezing of rat liver, (6) thawing of rat liver, (7) unloading of CPAs during HMP, and (8) functional recovery of frozen rat livers during SNMP.
Within this protocol, we first compared partially frozen livers at −10° C. (n=4 livers) and −15° C. (n=9 livers) with 12% glycerol. Upon finding minimal differences between these two groups, we combined them as a control and compared them to livers partially frozen with 0.5 mg/ml (0.05% w/v) of AFGP (n=4 livers) or 0.1% X-1000/0.2% Z-1000 (total, 0.3% w/v; n=4 livers) ice modulating agents added to the preservation solution. After freezing, liver viability on SNMP was compared between the 12% glycerol control group and the two ice modulated groups.
Partial freezing protocol: The rat liver perfusion system involved perfusion through the cannulated portal vein (PV) with regulation of pressure, flow, and temperature. Detailed set-up of the perfusion system has been previously described (see, e.g., ref. 34). The total rat hepatectomy protocol was approved by the Institutional Animal Care and Use Committee (IACUC) of Massachusetts General Hospital (Boston, MA). Livers were procured from male Lewis rats (250-300 g, age 10-12 weeks. Charles River Laboratories, Wilmington, MA) (FIG. 39, step 1). The bile duct was isolated and cannulated, and the rats were heparinized with 30U sodium heparin. PV splenic and gastric branches, as well as the hepatic artery were ligated prior to cannulation. The PV was subsequently cannulated with a 16-gauge catheter and immediately flushed with 40 ml of heparinized saline (1000U/ml at room temperature). The liver was then freed from all peritoneal attachments, flushed with an additional 20 ml of heparinized saline. After procurement, the liver was weighed, and machine perfusion was immediately initiated.
Preconditioning during SNMP was initiated at 21° C. with a flow rate of 5 ml/min (FIG. 39, step 2). […] The rat livers were perfused for 1 hour with 500 ml of preconditioning solution including Williams E, 200 U/l of insulin, 2% w/v PEG, 50 g/L BSA, 100 mM 3-O-methylglucose (3-OMG), 10,000 U/l of heparin, 24 mg/L of dexamethasone, 25 mg/ml of hydrocortisone, 40,000 μg/l of penicillin, and 40,000 U/l of streptomycin and sodium bicarbonate as needed to maintain a physiological pH (see Table 9 for composition of all solutions).
After 1 hour of preconditioning during SNMP, the temperature was decreased to 4° C. at a rate of ˜1° C./min. Flow rates were gradually adjusted as necessary to ensure a maximum perfusion pressure of 3-5 mmHg during HMP. The SNMP preconditioning solution was switched to 500 ml CPA preloading solution at 4° C. (including Williams E, 200 U/l of insulin, 2% PEG, 50 g/L BSA, 100 mM 3-OMG, 30 mM raffinose, 3% hydroxyethyl starch (HES), 6% glycerol, 4000 U/l of heparin, 24 mg/l of dexamethasone, 25 mg/ml of hydrocortisone, 40,000 μg/l of penicillin, 40,000 U/l of streptomycin, and sodium bicarbonate as needed to maintain a physiological pH) (FIG. 39, step 3; Table 9). HMP was continued for 1 hour to ensure complete equilibration of solution throughout the liver parenchyma. […]

[1] = after SNMP recovery, pooled 1 and 5 days

## OCC(O)CO [GLY, glycerol]
12% glycerol only, pooled 1 and 5 days, at time zero
  mean perfusate lactate: 1.17 ± 0.61 mmol/L
12% glycerol, pooled 1 and 5 days
  function of livers frozen at −10° C. vs −15° C. (perfusion metrics, weight gain, ATP, EC): not functionally different
After 1 and 5 day partial freezing
  H&E staining of liver parenchyma: sinusoidal damage and compression, peri-portal endothelial destruction
After 1 and 5 days of frozen storage
  TUNEL staining: remarkably less TUNEL staining
[1]
  mean ATP: 0.187 ± 0.075 µg/mL
  mean energy charge (EC), (ATP+1/2ADP)/(ATP+ADP+AMP): 0.066±0.032
End of SNMP recovery vs weight after procurement, pooled 1 and 5 days
  final mean weight gain: 26.9±15.3%
Pooled 1 and 5 days, at 0 hours
  mean vascular resistance: 0.528±0.39 mmHg/ml/min
Pooled 1 and 5 days, at 1 hour
  mean perfusate potassium: 6.5 ± 1.01 mmol/L
